Test results as given in patent US20100196465A1, “STABLE PHARMACEUTICAL COMPOSITION OF A WATER-SOLUBLE VINORELBINE SALT” (Pierre Fabre Medicament, priority 2007, published 2010).

Experiment: Stability test at 5° C. in a sealed package after 6 and 12 months (impurity content)
Type: physicochemical
Conditions: external 20% humidity, % of the total weight of the composition
Description: The compositions as gelatin capsules are housed in a sealed package (T0) and stored at 5° C. with an external 20% humidity rate. Next, the impurity content (in % of the total weight of the composition) is dosed after 6 and 12 months (T6 and T12 respectively) and compared to that dosed beforehand at T0. The difference between the percentages at T6 and T0 and then T12 and T0 indicate the change in the impurity content.
It is compared with that obtained for freeze-dried vinorelbine ditartrate stored under the same conditions.
This operating procedure was applied in the following Examples 2 to 5.

Change in impurity content T0 to T12: T0 to T12: +0.79%
Compound: CCC1=C[C@@H]2CN(C1)Cc1c([nH]c3ccccc13)[C@@](C(=O)OC)(c1cc3c(cc1OC)N(C)[C@H]1[C@@](O)(C(=O)OC)[C@H](OC(C)=O)[C@]4(CC)C=CCN5CC[C@]31[C@@H]54)C2 [Vinorelbine ditartrate, vinorelbine ditartrate]
